ChEMBL document CHEMBL4765451, “The one-pot synthesis of butyl-1H-indol-3-alkylcarboxylic acid derivatives in ionic liquid as potent dual-acting agent for management of BPH” (Eur J Med Chem, 2020)

What was measured:
[1] = target: T1, Alpha-1A adrenergic receptor (Homo sapiens, UniProt P35348); experiment: Antagonist activity at human alpha1A receptor transfected in HEK293 cells co-transfected with Galpha16 assessed as reduction in intracellular calcium release incubated for 40 mins by Fluo-4AM dye based fluorescence assay; type: functional, cell-based
T1 sequence (P35348 whole entry): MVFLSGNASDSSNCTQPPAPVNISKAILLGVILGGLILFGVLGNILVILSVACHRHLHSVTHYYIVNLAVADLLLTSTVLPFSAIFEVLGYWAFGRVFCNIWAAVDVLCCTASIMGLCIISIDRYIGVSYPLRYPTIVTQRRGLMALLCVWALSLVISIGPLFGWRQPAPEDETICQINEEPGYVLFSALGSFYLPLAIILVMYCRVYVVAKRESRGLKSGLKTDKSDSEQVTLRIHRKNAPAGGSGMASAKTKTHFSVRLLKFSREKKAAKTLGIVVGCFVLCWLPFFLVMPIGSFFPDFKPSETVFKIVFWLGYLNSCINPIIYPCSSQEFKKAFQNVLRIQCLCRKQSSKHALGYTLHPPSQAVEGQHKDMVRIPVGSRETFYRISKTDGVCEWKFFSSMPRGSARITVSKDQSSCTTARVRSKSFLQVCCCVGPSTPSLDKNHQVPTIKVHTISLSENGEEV

[2] = target: T2, Alpha-1B adrenergic receptor (Homo sapiens, UniProt P35368); experiment: Antagonist activity at human alpha1B receptor transfected in HEK293 cells co-transfected with Galpha16 assessed as reduction in intracellular calcium release incubated for 40 mins by Fluo-4AM dye based fluorescence assay; type: functional, cell-based
T2 sequence (P35368 whole entry): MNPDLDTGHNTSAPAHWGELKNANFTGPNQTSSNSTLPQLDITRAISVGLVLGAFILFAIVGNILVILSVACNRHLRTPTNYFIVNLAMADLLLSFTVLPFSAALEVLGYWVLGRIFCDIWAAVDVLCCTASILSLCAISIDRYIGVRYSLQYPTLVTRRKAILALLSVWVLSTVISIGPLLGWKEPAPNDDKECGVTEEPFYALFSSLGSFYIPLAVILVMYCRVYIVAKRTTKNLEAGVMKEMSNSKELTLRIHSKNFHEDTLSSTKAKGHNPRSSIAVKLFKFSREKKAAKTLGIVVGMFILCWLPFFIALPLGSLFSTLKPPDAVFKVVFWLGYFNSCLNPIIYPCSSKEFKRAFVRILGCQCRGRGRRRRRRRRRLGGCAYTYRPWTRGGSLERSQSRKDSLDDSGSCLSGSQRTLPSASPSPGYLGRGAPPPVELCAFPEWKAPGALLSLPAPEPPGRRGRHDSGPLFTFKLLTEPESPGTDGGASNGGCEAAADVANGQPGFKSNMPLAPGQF

[3] = target: T3, Alpha-1D adrenergic receptor (Homo sapiens, UniProt P25100); experiment: Antagonist activity at human alpha1D receptor transfected in HEK293 cells co-transfected with Galpha16 assessed as reduction in intracellular calcium release incubated for 40 mins by Fluo-4AM dye based fluorescence assay; type: functional, cell-based
T3 sequence (P25100 whole entry): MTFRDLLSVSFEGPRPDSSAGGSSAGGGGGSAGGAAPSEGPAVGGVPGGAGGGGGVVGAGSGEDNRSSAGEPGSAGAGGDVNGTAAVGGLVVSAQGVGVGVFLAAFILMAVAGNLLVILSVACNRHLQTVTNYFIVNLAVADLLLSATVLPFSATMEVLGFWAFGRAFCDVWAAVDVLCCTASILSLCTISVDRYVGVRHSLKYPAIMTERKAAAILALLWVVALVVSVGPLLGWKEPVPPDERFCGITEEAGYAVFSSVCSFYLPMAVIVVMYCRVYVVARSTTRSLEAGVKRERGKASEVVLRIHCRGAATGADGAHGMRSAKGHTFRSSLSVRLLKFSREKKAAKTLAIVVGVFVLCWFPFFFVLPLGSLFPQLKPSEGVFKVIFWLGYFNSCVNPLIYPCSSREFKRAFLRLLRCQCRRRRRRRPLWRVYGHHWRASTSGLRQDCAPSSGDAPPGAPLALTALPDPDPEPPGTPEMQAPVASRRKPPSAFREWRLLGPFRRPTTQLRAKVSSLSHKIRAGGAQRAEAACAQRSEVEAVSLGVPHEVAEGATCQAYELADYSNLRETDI

[4] = Inhibition of 5-alpha reductase in rat liver microsomes assessed as inhibition of DHT formation using testosterone as substrate incubated for 10 mins by NADPH assay
[5] = Tmax in Sprague-Dawley rat at 20 mg/kg, ip; type: ADME, organism-based; conditions: in vivo
[6] = Cmax in Sprague-Dawley rat at 20 mg/kg, ip; type: ADME, organism-based; parameters: route intraperitoneal, dose 20 mg/kg; conditions: in vivo
[7] = AUC (0 to t) in Sprague-Dawley rat at 20 mg/kg, ip; type: ADME, organism-based; parameters: dose 20 mg/kg; conditions: in vivo
[8] = AUC (0 to infinity) in Sprague-Dawley rat at 20 mg/kg, ip; type: ADME, organism-based; parameters: time infinity, route intraperitoneal, dose 20 mg/kg; conditions: in vivo
[9] = MRT in Sprague-Dawley rat at 20 mg/kg, ip; type: ADME, organism-based; conditions: in vivo
[10] = Half life in Sprague-Dawley rat at 20 mg/kg, ip; type: ADME, organism-based; conditions: in vivo
[11] = Bioavailability in Sprague-Dawley rat at 20 mg/kg, ip; type: ADME, organism-based; conditions: in vivo
[12] = Tmax in Sprague-Dawley rat at 2 mg/kg, iv; type: ADME, organism-based; conditions: in vivo
[13] = Cmax in Sprague-Dawley rat at 2 mg/kg, iv; type: ADME, organism-based; parameters: route intravenous, dose 2 mg/kg; conditions: in vivo
[14] = AUC (0 to t) in Sprague-Dawley rat at 2 mg/kg, iv; type: ADME, organism-based; parameters: dose 2 mg/kg; conditions: in vivo
[15] = AUC (0 to infinity) in Sprague-Dawley rat at 2 mg/kg, iv; type: ADME, organism-based; parameters: time infinity, route intravenous, dose 2 mg/kg; conditions: in vivo
[16] = MRT in Sprague-Dawley rat at 2 mg/kg, iv; type: ADME, organism-based; conditions: in vivo
Huh-7 = experiment: Cytotoxicity against human Huh-7 cells assessed as reduction in cell viability at 0.390625 to 100 uM incubated for 72 hrs by MTT assay; type: cell-based; conditions: huh-7, 72 h, dose 0.390625-100 µM
Caco-2 = experiment: Cytotoxicity against human Caco-2 cells assessed as reduction in cell viability at 0.390625 to 100 uM incubated for 72 hrs by MTT assay; type: cell-based; conditions: caco-2, 72 h, dose 0.390625-100 µM
[17] = Half life in Sprague-Dawley rat at 2 mg/kg, iv; type: ADME, organism-based; conditions: in vivo

IC50 [1] [nM] | IC50 [2] [nM] | IC50 [3] [nM] | IC50 [4] [nM] | SMILES | other results
> 1000 | 9.8 | 378 | > 5000 | COc1ccccc1N1CCN(CCCCCn2cc(CCCC(=O)O)c3ccccc32)CC1 | –
32.9 | > 1000 | 329 | 612 | O=C(O)CCCc1cn(CCCCCN2CCN(c3ccccc3Cl)CC2)c2ccccc12 | –
20.8 | > 1000 | 189 | 568 | COc1ccccc1N1CCN(CCCCn2cc(CCCC(=O)O)c3ccccc32)CC1 | Tmax [5]: 3 min; Cmax [6]: 89.6 ng/mL; AUC(0-t) [7]: 17.5 ng·h/mL; AUC(0-inf) [8]: 26.9 ng·h/mL; MRT [9]: 1.49 h; half-life [10]: 5.75 h; bioavailability [11]: 8.83%; Tmax [12]: 3 min; Cmax [13]: 37.9 ng/mL; AUC(0-t) [14]: 12.3 ng·h/mL; AUC(0-inf) [15]: 30.5 ng·h/mL; MRT [16]: 1.94 h; Activity (Huh-7): Non-Toxic; Activity (Caco-2): Non-Toxic; half-life [17]: 11 h
> 1000 | > 1000 | 164 | > 5000 | COc1ccccc1N1CCN(CCCn2cc(CCCC(=O)O)c3ccccc32)CC1 | –

Continued, compound first:

SMILES | IC50 [1] [nM] | IC50 [2] [nM] | IC50 [3] [nM] | IC50 [4] [nM] | other results
O=C(O)CCCc1cn(CCCCN2CCN(c3ccccc3Cl)CC2)c2ccccc12 | > 1000 | > 1000 | 189 | > 5000 | –
CC(C)(C)NC(=O)[C@H]1CC[C@H]2[C@@H]3CC[C@H]4NC(=O)C=C[C@]4(C)[C@H]3CC[C@]12C [FINASTERIDE] | – | – | – | 590 | –
CCOc1ccccc1OCCN[C@H](C)Cc1ccc(OC)c(S(N)(=O)=O)c1 [TAMSULOSIN] | – | 4.2 | 0.15 | – | –
